Reference: paper PMC4370192, “Discovery of Specific Inhibitors for Intestinal E. coli β-Glucuronidase through In Silico Virtual Screening” (The Scientific World Journal, 2015)

Assays:
human βG (hβG) = biological target: T1, human βG (hβG) (Homo sapiens, UniProt P08236); assay: In vitro βG-activity assay (pNPG hydrolysis), hβG; format: biochemical; details: pH 5.4, percent of activity vs untreated control
T1 construct: histidine tag (N); made in house; host or cells: E. coli BL21 (DE3)
T1 sequence (P08236 23-651): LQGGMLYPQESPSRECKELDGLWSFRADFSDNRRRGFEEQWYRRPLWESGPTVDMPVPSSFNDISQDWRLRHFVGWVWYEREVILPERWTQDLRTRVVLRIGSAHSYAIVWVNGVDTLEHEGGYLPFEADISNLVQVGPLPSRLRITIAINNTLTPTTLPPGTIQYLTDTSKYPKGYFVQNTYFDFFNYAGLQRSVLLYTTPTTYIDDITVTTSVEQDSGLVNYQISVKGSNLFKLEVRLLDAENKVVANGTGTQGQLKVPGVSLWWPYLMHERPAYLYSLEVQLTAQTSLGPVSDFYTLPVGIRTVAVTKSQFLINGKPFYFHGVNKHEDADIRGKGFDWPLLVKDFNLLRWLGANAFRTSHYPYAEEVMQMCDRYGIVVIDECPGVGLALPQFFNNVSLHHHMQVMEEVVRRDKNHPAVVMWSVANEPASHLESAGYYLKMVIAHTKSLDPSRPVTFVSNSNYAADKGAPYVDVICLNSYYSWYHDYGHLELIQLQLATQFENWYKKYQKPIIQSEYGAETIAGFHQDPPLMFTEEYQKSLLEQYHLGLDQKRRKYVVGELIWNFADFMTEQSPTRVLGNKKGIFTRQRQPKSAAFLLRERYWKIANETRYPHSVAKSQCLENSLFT
Procedure: (§1) Plasmid pRESTB containing βG gene and a histidine tag at the N-terminus was constructed as described. Recombinant βG (human and E. coli) was produced by isopropyl β-D-thiogalactopyranoside (IPTG) induction of BL21 (DE3) bacteria. βG was purified from bacterial supernatants by affinity chromatography on nickels Sepharose 6 Fast Flow (GE Healthcare). The column was washed by phosphate-buffered saline (PBS), with 50 mM imidazole, and βG was eluted by PBS with 250 mM imidazole. The purified βG was desalted on a Sephadex G-25 column equilibrated with PBS and stored at −80°C.
(§2) The candidate compounds were purchased from SPECS (The Netherlands). Each candidate was provided as a solid power and dissolved in 100% DMSO (Sigma-Aldrich) to 10 mM as stock. Candidates were screened for their inhibition specificity of eβG versus hβG, which were conducted at pH 7.3 or pH 5.4, in triplicate, respectively. 40 μL purified βG was treated with 10 μL compound solution at 37°C for 30 min and sequentially incubated with 50 μL of pNPG (Sigma-Aldrich) at 37°C for 30 min. Reactions were quenched with 5 μL of 2 N sodium hydroxide (Sigma-Aldrich). Each reaction consisted of 3.75 ng purified βG, 50 μM compound, and 5 mM pNPG in PBS containing 10% DMSO and 0.05% BSA (Sigma-Aldrich). βG-activities were measured by color development of pNP detected on a microplate reader at OD 405 nm.
(Table S1) The candidate compounds were purchased from SPECS (Zoetermeer, The Netherlands). Each candidate was rovided as a solid power and dissolved in 100% DMSO (Sigma-Aldrich, MO, USA) to 10 mM as stock. Candidates were screening for their inhibition specificity of eβG verse hβG, which were conducted at pH 7.3 or pH 5.4 in triplicate, respectively. 40 µL purified βG was treated with 10 µL compound solution at 37 °C for 30 min, and sequentially incubated with 50 µL of pNPG (Sigma-Aldrich) at 37 °C for 30 min. Reactions were quenched with 5 µL of 2 N sodium hydroxide (Sigma-Aldrich). Each reaction consisted of 3.75 ng purified βG, 50 µM compound, and 5 mM pNPG in PBS containing 10% DMSO and 0.05% BSA (Sigma-Aldrich). βG-activities were measured by color development of pNP detected on a microplate reader at OD 405 nm. […]
candidate compounds were purchased from SPECS (Zoetermeer, The Netherlands). Each candidate was provided as a solid power and dissolved in 100% DMSO (Sigma-Aldrich, MO, USA) to 10 mM as stock. Candidates were screening for their inhibition specificity of eβG verse hβG, which were conducted at pH 7.3 or pH 5.4 in triplicate, respectively. 40 μL purified βG was treated with 10 μL compound solution at 37 °C for 30 min, and sequentially incubated with 50 μL of pNPG (Sigma-Aldrich) at 37 °C for 30 min. Reactions were quenched with 5 μL of 2 N sodium hydroxide (Sigma-Aldrich). Each reaction consisted of 3.75 ng purified βG, 50 μM compound, and 5 mM pNPG in PBS containing 10% DMSO and 0.05% BSA (Sigma-Aldrich). βG-activities were measured by color development of pNP detected on a microplate reader at OD 405 nm.

[1] = biological target: T2, E. coli β-glucuronidase (eβG) (Escherichia coli, UniProt P05804); assay: In vitro βG-activity assay (pNPG hydrolysis), eβG; format: biochemical; details: 50 μM compound, pH 7.3, percent of activity vs untreated control
T2 construct: histidine tag (N); made in house; host or cells: E. coli BL21 (DE3)
T2 sequence (P05804 whole entry): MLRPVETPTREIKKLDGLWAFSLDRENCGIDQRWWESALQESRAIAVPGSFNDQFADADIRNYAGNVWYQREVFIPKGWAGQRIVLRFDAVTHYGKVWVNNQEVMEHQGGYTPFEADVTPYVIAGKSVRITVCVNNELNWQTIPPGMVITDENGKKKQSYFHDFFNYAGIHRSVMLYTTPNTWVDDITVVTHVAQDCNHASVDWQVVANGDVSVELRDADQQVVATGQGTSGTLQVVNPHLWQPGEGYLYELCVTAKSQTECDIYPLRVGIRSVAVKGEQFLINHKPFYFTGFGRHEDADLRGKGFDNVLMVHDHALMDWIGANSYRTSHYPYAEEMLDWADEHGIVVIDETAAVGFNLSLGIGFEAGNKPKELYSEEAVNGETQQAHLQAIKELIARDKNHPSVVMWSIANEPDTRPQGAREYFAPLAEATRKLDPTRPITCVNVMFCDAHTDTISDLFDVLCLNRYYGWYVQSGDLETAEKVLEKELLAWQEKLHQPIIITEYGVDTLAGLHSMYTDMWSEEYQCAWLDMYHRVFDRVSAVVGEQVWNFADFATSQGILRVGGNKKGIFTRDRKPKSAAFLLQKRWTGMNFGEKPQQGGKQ
Procedure: as §1
as §2, with “nm. […] For IC50 determination, compounds at various concentrations (100 μM to 0.001 μM) were added.” for “nm.”
Supplementary file 740815.f1.pdf: Fifty-nine candidate compounds were acquired from the initial virtually screening which was designed to target the bacterial loop of eβG and its active site. The docking energy scores of 59 candidate compounds measured by the DOCK program are -43 to -55 kcal/mol. (Table S1) The candidate compounds were purchased from SPECS (Zoetermeer, The Netherlands). Each candidate was rovided as a solid power and dissolved in 100% DMSO (Sigma-Aldrich, MO, USA) to 10 mM as stock. Candidates were screening for their inhibition specificity of eβG verse hβG, which were conducted at pH 7.3 or pH 5.4 in triplicate, respectively. 40 µL purified βG was treated with 10 µL compound solution at 37 °C for 30 min, and sequentially incubated with 50 µL of pNPG (Sigma-Aldrich) at 37 °C for 30 min. Reactions were quenched with 5 µL of 2 N sodium hydroxide (Sigma-Aldrich). Each reaction consisted of 3.75 ng purified βG, 50 µM compound, and 5 mM pNPG in PBS containing 10% DMSO and 0.05% BSA (Sigma-Aldrich). βG-activities were measured by color development of pNP detected on a microplate reader at OD 405 nm. […] Especially, the inhibiting ability against eβG activity was >95% in 7 candidates of eβG specific inhibitors (Table S1).
Fifty-nine candidate compounds were acquired from the initial virtually screening which was designed to target the bacterial loop of eβG and its active site. The docking energy scores of 59 candidate compounds measured by the DOCK program are -43 to -55 kcal/mol. (Table S1) The candidate compounds were purchased from SPECS (Zoetermeer, The Netherlands). Each candidate was provided as a solid power and dissolved in 100% DMSO (Sigma-Aldrich, MO, USA) to 10 mM as stock. Candidates were screening for their inhibition specificity of eβG verse hβG, which were conducted at pH 7.3 or pH 5.4 in triplicate, respectively. 40 μL purified βG was treated with 10 μL compound solution at 37 °C for 30 min, and sequentially incubated with 50 μL of pNPG (Sigma-Aldrich) at 37 °C for 30 min. Reactions were quenched with 5 μL of 2 N sodium hydroxide (Sigma-Aldrich). Each reaction consisted of 3.75 ng purified βG, 50 μM compound, and 5 mM pNPG in PBS containing 10% DMSO and 0.05% BSA (Sigma-Aldrich). βG-activities were measured by color development of pNP detected on a microplate reader at OD 405 nm. […]
percent of βG activity compared with the untreated control.
Especially, the inhibiting ability against eβG activity was >95% in 7 candidates of eβG specific inhibitors (Table S1).
Table S1. […]

## CC(CNS(=O)(=O)c1ccc(Cl)cc1)n1cncn1 (stereo not drawn) [Compound 3379]
Human βG (hβG)
  hβG activity (%) with 50 μM compound: 102.56%
[1]
  eβG activity (%) with 50 μM compound: 31.70%

## Cc1cccc2n(C)c(/C=N/N=C(N)N)c[n+]12 [Compound 0956]
Human βG (hβG)
  hβG activity (%) with 50 μM compound: 103.31%
[1]
  eβG activity (%) with 50 μM compound: 29.70%

## COc1cc(C(=O)N2CCNCC2)cc(OC)c1OC [Compound 6368]
Human βG (hβG)
  hβG activity (%) with 50 μM compound: 116.03%
[1]
  eβG activity (%) with 50 μM compound: 44.87%

## COc1ccc(N2C(=O)CC(NC3CCCCNC3=O)C2=O)cc1 (stereo not drawn) [Compound 7007]
Human βG (hβG)
  hβG activity (%) with 50 μM compound: 105.79%
[1]
  eβG activity (%) with 50 μM compound: 44.30%

## CCN(CC)S(=O)(=O)c1cccc(N=Nc2c(O)[nH]c(=O)[nH]c2=O)c1 [Compound 9274]
Human βG (hβG)
  hβG activity (%) with 50 μM compound: 106.69%
[1]
  eβG activity (%) with 50 μM compound: 32.34%

## Cc1cc(NS(=O)(=O)c2ccc(NC(=O)c3cc(Cl)ccc3[N+](=O)[O-])cc2)nc(C)n1 [Compound 5003]
Human βG (hβG)
  hβG activity (%) with 50 μM compound: 105.54%
[1]
  eβG activity (%) with 50 μM compound: 17.02%

## O=C(O)C1CC=CCC1C(=O)Nc1ccc2ccccc2c1 (stereo not drawn) [Compound 4043]
Human βG (hβG)
  hβG activity (%) with 50 μM compound: 81.24%
[1]
  eβG activity (%) with 50 μM compound: 32.98%

## CS(=O)(=O)CCC(C(=O)O)N1C(=O)c2ccccc2C1=O (stereo not drawn) [Compound 9063]
Human βG (hβG)
  hβG activity (%) with 50 μM compound: 105.45%
[1]
  eβG activity (%) with 50 μM compound: 32.48%

## N#Cc1cc2[nH]c(=O)c(=O)[nH]c2cc1[N+](=O)[O-] [Compound 5012]
Human βG (hβG)
  hβG activity (%) with 50 μM compound: 108.51%
[1]
  eβG activity (%) with 50 μM compound: 14.96%

## Cc1ccccc1NC(=O)c1cccc(NC(=O)c2cc(Cl)c(Cl)cc2C(=O)O)c1 [Compound 1306]
Human βG (hβG)
  hβG activity (%) with 50 μM compound: 105.45%
[1]
  eβG activity (%) with 50 μM compound: 29.20%

## O=C(NC(NCc1ccco1)C(Cl)(Cl)Cl)c1ccc(Br)cc1 (stereo not drawn) [Compound 6019]
Human βG (hβG)
  hβG activity (%) with 50 μM compound: 104.96%
[1]
  eβG activity (%) with 50 μM compound: 33.83%

## Cc1ccc2nc(CSc3nc(-c4ccncc4)ccc3C#N)[nH]c2c1 [Compound 9665]
Human βG (hβG)
  hβG activity (%) with 50 μM compound: 100.83%
[1]
  eβG activity (%) with 50 μM compound: 8.97%
